Patent US20250214991A1 (Oncopia Therapeutics, Inc. d/b/a/ SK Life Science Labs, priority 2022, published 2025)

Assays:
[1] = target: IKZF2 (Homo sapiens (Human), UniProt Q96SW2+Q9UKS7); assay: In vitro IKZF2 HiBit Assay (HEK293T Flp-in-HiBiT cells); type: cell-based; settings: HEK293T Flp-in-HiBiT cells, 6 hrs incubation; for DC50: read-out: IKZF2 HiBit DC50; for Dmax: HEK-293T, read-out: IKZF2 HiBit Dmax (%)
How it was run: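 Remaining tagged Helios was read as lytic HiBiT/LgBiT luminescence normalized to DMSO, yielding binned DC50 and Dmax values. Treatment ran 6 h, with compounds at 11 three-fold doses diluted from 1 mM and 0.1% final DMSO. The cells were HEK293T Flp-in with CRISPR knock-in of HiBiT at the IKZF2 N-terminus.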

[2] = target: IKZF1 (Homo sapiens (Human), UniProt Q13422+Q96SW2); assay: In vitro IKZF1 HiBit Assay (HEK293T Flp-in-HiBiT-IKZF1 stable cell line); type: cell-based; settings: HEK293T Flp-in-HiBiT-IKZF1 stable cell line, 6 hrs incubation; for DC50: read-out: IKZF1 HiBit DC50; for Dmax: HEK-293T, read-out: IKZF1 HiBit Dmax (%)
IKZF1, sequence (Q13422 whole entry): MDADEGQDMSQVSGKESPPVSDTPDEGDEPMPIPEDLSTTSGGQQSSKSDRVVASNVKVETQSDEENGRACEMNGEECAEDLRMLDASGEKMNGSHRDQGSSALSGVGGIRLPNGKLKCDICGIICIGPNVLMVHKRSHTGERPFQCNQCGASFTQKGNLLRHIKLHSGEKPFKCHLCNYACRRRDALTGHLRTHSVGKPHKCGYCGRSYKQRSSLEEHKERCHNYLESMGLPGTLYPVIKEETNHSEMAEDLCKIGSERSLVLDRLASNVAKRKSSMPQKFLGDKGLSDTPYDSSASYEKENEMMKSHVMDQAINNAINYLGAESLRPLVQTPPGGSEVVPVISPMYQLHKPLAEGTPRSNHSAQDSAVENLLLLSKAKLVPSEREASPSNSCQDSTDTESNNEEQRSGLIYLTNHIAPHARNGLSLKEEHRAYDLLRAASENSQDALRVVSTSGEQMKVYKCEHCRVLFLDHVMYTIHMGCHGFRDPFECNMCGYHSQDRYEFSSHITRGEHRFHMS
IKZF1, sequence (Q96SW2 whole entry): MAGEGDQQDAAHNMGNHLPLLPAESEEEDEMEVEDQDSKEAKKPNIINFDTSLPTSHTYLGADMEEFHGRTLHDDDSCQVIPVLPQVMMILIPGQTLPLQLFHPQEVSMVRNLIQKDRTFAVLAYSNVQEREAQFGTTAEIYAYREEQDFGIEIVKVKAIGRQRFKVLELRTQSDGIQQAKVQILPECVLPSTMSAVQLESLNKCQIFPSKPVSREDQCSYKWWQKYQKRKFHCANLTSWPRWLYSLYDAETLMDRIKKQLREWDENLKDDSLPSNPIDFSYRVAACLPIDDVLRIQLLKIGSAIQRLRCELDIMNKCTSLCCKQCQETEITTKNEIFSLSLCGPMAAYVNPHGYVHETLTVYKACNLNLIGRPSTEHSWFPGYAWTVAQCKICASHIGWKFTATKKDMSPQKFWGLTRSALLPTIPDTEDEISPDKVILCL
IKZF1, sequence (Q16531 2-1140 partner): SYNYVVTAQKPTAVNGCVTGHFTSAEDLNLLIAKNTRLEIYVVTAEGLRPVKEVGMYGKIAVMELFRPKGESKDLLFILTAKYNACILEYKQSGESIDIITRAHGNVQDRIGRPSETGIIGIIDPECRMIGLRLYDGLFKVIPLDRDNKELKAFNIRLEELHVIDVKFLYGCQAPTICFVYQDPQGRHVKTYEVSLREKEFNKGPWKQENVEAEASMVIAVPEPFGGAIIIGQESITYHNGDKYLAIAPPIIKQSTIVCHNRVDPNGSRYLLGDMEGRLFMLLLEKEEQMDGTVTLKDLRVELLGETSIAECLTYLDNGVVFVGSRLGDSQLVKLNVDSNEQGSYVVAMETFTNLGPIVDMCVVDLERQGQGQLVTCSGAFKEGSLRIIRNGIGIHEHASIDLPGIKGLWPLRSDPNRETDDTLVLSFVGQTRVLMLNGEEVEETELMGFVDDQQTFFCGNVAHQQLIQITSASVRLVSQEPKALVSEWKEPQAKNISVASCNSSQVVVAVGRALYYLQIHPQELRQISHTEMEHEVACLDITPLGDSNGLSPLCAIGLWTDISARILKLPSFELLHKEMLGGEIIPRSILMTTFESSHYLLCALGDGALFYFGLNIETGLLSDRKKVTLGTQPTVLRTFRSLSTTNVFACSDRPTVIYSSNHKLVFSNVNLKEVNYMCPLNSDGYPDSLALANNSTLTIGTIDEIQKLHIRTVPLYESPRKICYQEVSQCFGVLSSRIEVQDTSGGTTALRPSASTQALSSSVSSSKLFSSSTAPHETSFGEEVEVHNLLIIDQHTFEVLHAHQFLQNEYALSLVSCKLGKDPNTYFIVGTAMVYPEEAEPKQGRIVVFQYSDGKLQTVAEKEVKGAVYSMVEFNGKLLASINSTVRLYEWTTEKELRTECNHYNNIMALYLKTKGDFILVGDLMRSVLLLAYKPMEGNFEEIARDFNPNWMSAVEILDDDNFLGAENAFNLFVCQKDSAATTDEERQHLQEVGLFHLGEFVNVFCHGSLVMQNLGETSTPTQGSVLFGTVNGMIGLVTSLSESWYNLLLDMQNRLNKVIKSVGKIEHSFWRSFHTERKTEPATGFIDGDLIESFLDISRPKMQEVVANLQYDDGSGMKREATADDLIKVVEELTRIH
How it was run: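 Degradation was measured as loss of luminescence from the HiBiT-IKZF1 tag after 6 h compound treatment, with 0.1% final DMSO, in stable HEK293T Flp-in cells. Values were normalized to DMSO, giving the 50% degradation concentration and the maximal degradation range.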

[3] = target: CRBN/DDB1 (Homo sapiens (Human), UniProt Q96SW2); assay: IC50 measurements for binding to CRBN/DDB1 (HTRF); settings: His tagged CRBN+DDB, Cy5-labeled Thalidomide probe, one hour
CRBN/DDB1, sequence (Q96SW2 whole entry, species assumed): as the sequence (Q96SW2 whole entry) above
CRBN/DDB1, sequence (Q16531 whole entry partner, species assumed): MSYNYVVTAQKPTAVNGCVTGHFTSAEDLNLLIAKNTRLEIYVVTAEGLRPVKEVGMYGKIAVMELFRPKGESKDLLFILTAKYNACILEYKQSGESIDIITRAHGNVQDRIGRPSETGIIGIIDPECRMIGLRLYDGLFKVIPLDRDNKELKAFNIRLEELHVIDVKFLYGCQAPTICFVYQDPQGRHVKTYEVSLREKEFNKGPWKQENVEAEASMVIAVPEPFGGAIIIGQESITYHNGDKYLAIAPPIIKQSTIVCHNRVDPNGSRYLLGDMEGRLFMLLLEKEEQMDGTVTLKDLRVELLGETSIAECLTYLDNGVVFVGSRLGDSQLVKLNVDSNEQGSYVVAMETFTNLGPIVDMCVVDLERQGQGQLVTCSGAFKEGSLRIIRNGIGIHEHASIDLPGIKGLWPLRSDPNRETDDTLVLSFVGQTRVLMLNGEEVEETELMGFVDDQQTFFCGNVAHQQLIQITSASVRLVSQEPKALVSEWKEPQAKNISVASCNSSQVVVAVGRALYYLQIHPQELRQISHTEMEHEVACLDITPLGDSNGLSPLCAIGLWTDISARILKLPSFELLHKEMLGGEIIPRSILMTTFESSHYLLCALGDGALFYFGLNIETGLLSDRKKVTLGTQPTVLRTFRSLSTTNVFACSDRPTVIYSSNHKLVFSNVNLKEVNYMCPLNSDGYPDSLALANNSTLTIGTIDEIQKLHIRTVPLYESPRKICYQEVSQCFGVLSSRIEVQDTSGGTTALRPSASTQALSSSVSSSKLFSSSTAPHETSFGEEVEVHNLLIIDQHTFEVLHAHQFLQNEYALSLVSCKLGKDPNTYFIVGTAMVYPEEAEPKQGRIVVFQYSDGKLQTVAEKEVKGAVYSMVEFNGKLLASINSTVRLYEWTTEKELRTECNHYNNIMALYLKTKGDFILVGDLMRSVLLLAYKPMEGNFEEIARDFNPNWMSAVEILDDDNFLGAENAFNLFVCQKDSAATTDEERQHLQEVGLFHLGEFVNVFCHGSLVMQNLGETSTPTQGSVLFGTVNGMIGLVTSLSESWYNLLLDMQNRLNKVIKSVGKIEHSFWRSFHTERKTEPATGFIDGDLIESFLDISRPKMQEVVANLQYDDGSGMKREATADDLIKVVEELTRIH
How it was run: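 Serially diluted compounds compete with a Cy5-labeled thalidomide tracer (60 nM) for His-tagged CRBN-DDB1 (2 nM), detected via anti-6His Tb cryptate (0.4 nM); buffer HEPES pH 7.5 with TCEP, Brij-35, NaCl, BSA. One-hour room-temperature incubation, HTRF signal read, IC50 by four-parameter curve.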

IKZF2, sequence (Q9UKS7 whole entry): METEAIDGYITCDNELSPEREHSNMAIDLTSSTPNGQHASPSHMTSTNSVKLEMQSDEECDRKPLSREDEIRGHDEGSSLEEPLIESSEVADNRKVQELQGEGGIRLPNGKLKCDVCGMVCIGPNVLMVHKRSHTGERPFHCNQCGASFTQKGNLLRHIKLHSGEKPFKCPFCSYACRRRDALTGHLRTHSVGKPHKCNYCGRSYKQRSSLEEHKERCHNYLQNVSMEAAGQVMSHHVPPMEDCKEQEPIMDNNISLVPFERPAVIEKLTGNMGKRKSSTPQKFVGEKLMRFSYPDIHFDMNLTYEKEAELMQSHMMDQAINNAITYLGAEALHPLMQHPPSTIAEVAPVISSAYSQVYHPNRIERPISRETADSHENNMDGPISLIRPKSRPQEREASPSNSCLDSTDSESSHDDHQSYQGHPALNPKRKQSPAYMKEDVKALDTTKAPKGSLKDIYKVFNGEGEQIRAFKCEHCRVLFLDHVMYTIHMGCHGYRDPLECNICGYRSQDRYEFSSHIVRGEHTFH
IKZF2, sequence (Q96SW2 whole entry): as the sequence (Q96SW2 whole entry) above
IKZF2, sequence (Q16531 2-1140 partner): as the sequence (Q16531 2-1140 partner) above

| SMILES | DC50 [1] | Dmax [1] | DC50 [2] | Dmax [2] | IC50 [3] |
| --- | --- | --- | --- | --- | --- |
| CN(C)c1n[nH]c2c(CN3CCCC3)cc(-c3ccc4c(c3)CN(C3CCC(=O)NC3=O)C4=O)nc12 (stereo not shown) [Example 179, 3-(5-(3-(dimethylamino)-7-(pyrrolidin-1-ylmethyl)-1H-pyrazolo[4,3-b]pyridin-5-yl)-1-oxoisoindolin-2-yl) piperidine-2,6-dione] | < 1 nM | > 80% | 10 to 100 nM | 40 to 60% | 5000 to 10000 nM |
| Cn1ccc2c(CN3CCCC3)nc(-c3ccc4c(c3)CN(C3CCC(=O)NC3=O)C4=O)nc21 (stereo not shown) [Example 184, 3-(5-(7-methyl-4-(pyrrolidin-1-ylmethyl)-7H-pyrrolo[2,3-d]pyrimidin-2-yl)-1-oxoisoindolin-2-yl) piperidine-2,6-dione] | 1 to 10 nM | 60 to 80% | 1000 to 10000 nM | 20 to 40% | 500 to 1000 nM |
| CS(=O)(=O)C1CCN(Cc2cc(-c3ccc4c(c3)CN(C3CCC(=O)NC3=O)C4=O)nc3c2ccn3C2COC2)CC1 (stereo not shown) [Example 185, 3-(5-(4-((4-(methylsulfonyl)piperidin-1-yl)methyl)-1-(oxetan-3-yl)-1H-pyrrolo[2,3-b]pyridin-6-yl)-1-oxoisoindolin-2-yl) piperidine-2,6-dione] | 100 to 1000 nM | 40 to 60% | > 10000 nM | < 20% | 500 to 1000 nM |
| O=C1CCC(N2Cc3cc(-c4cc(CN5CCC6(CC5)COC6)c5ccn(C6COC6)c5n4)ccc3C2=O)C(=O)N1 (stereo not shown) [Example 188, 3-(5-(4-((2-oxa-7-azaspiro[3.5]nonan-7-yl)methyl)-1-(oxetan-3-yl)-1H-pyrrolo[2,3-b]pyridin-6-yl)-1-oxoisoindolin-2-yl) piperidine-2,6-dione] | 1 to 10 nM | 60 to 80% | > 10000 nM | < 20% | 500 to 1000 nM |
| CN(C)C1CCN(Cc2cc(-c3ccc4c(c3)CN(C3CCC(=O)NC3=O)C4=O)nc3c2ccn3C2COC2)CC1 (stereo not shown) [Example 190, 3-(5-(4-((4-(dimethylamino)piperidin-1-yl)methyl)-1-(oxetan-3-yl)-1H-pyrrolo[2,3-b]pyridin-6-yl)-1-oxoisoindolin-2-yl) piperidine-2,6-dione] | 10 to 100 nM | 40 to 60% | > 10000 nM | < 20% | 100 to 500 nM |
| O=C1CCC(N2Cc3cc(-c4cc(CN5CC6COCC(C6)C5)c5ccn(C6COC6)c5n4)ccc3C2=O)C(=O)N1 (stereo not shown) [Example 191, 3-(5-(4-((3-oxa-7-azabicyclo[3.3.1]nonan-7-yl)methyl)-1-(oxetan-3-yl)-1H-pyrrolo[2,3-b]pyridin-6-yl)-1-oxoisoindolin-2-yl) piperidine-2,6-dione] | 1 to 10 nM | 60 to 80% | > 10000 nM | < 20% | 1000 to 5000 nM |
| N#CC1CCN(Cc2cc(-c3ccc4c(c3)CN(C3CCC(=O)NC3=O)C4=O)nc3c2ccn3C2COC2)CC1 (stereo not shown) [Example 192, 1-((6-(2-(2,6-dioxopiperidin-3-yl)-1-oxoisoindolin-5-yl)-1-(oxetan-3-yl)-1H-pyrrolo[2,3-b]pyridin-4-yl)methyl) piperidine-4-carbonitrile] | 10 to 100 nM | 60 to 80% | > 10000 nM | < 20% | 1000 to 5000 nM |
| Cc1nc2nc(-c3ccc4c(c3)CN(C3CCC(=O)NC3=O)C4=O)cc(CN3CCCC3)c2o1 (stereo not shown) [Example 194, 3-(5-(2-methyl-7-(pyrrolidin-1-ylmethyl)oxazolo[4,5-b]pyridin-5-yl)-1-oxoisoindolin-2-yl) piperidine-2,6-dione] | 1 to 10 nM | > 80% | > 10000 nM | < 20% | 1000 to 5000 nM |
| Cc1cc(-c2ccc3c(c2)CN(C2CCC(=O)NC2=O)C3=O)nc2nc(CN3CCCC3)oc12 (stereo not shown) [Example 195, 3-(5-(7-methyl-2-(pyrrolidin-1-ylmethyl)oxazolo[4,5-b]pyridin-5-yl)-1-oxoisoindolin-2-yl) piperidine-2,6-dione] | 10 to 100 nM | 60 to 80% | > 10000 nM | < 20% | 1000 to 5000 nM |
| Nc1n[nH]c2c(CN3CCC(O)C3)cc(-c3ccc4c(c3)CN(C3CCC(=O)NC3=O)C4=O)nc12 (stereo not shown) [Example 196, 3-(5-(3-amino-7-((3-hydroxypyrrolidin-1-yl)methyl)-1H-pyrazolo[4,3-b]pyridin-5-yl)-1-oxoisoindolin-2-yl) piperidine-2,6-dione] | 100 to 1000 nM | 40 to 60% | > 10000 nM | < 20% | 1000 to 5000 nM |
| Cc1nc2c(CN3CCCC3)cc(-c3ccc4c(c3)CN(C3CCC(=O)NC3=O)C4=O)nc2o1 (stereo not shown) [Example 197, 3-(5-(2-methyl-7-(pyrrolidin-1-ylmethyl)oxazolo [5,4-b]pyridin-5-yl)-1-oxoisoindolin-2-yl) piperidine-2,6-dione] | 1 to 10 nM | 60 to 80% | > 10000 nM | < 20% | 500 to 1000 nM |
| O=C1CCC(N2Cc3cc(-c4cc(CN5CCCC5)c5c(n4)NC(=O)C5)ccc3C2=O)C(=O)N1 (stereo not shown) [Example 200, 3-(1-oxo-5-(2-oxo-4-(pyrrolidin-1-ylmethyl)-2,3-dihydro-1H-pyrrolo[2,3-b]pyridin-6-yl)isoindolin-2-yl) piperidine-2,6-dione] | 100 to 1000 nM | 60 to 80% | 100 to 1000 nM | 20 to 40% | 100 to 500 nM |
| Nc1n[nH]c2c(CN3CCC(F)C3)cc(-c3ccc4c(c3)CN(C3CCC(=O)NC3=O)C4=O)nc12 (stereo not shown) [Example 201, 3-(5-(3-amino-7-((3-fluoropyrrolidin-1-yl)methyl)-1H-pyrazolo[4,3-b]pyridin-5-yl)-1-oxoisoindolin-2-yl) piperidine-2,6-dione] | 10 to 100 nM | 60 to 80% | 1000 to 10000 nM | 20 to 40% | 500 to 1000 nM |
| O=C1CCC(N2Cc3cc(-c4cc(CN5CCCC5)c5[nH]nc(NC6COC6)c5n4)ccc3C2=O)C(=O)N1 (stereo not shown) [Example 204, 3-(5-(3-(oxetan-3-ylamino)-7-(pyrrolidin-1-ylmethyl)-1H-pyrazolo[4,3-b]pyridin-5-yl)-1-oxoisoindolin-2-yl) piperidine-2,6-dione] | 1000 to 10000 nM | < 20% | > 10000 nM | < 20% | 1000 to 5000 nM |
| Nc1n[nH]c2c(CN3CC(F)C3)cc(-c3ccc4c(c3)CN(C3CCC(=O)NC3=O)C4=O)nc12 (stereo not shown) [Example 207, 3-(5-(3-amino-7-((3-fluoroazetidin-1-yl)methyl)-1H-pyrazolo[4,3-b]pyridin-5-yl)-1-oxoisoindolin-2-yl) piperidine-2,6-dione] | 10 to 100 nM | 60 to 80% | > 10000 nM | < 20% | 100 to 500 nM |
| Nc1n[nH]c2c(CN3CCC3)cc(-c3ccc4c(c3)CN(C3CCC(=O)NC3=O)C4=O)nc12 (stereo not shown) [Example 208, 3-(5-(3-amino-7-(azetidin-1-ylmethyl)-1H-pyrazolo[4,3-b]pyridin-5-yl)-1-oxoisoindolin-2-yl) piperidine-2,6-dione] | 100 to 1000 nM | 60 to 80% | > 10000 nM | < 20% | < 100 nM |
| Nc1n[nH]c2c(CN3CC(O)C3)cc(-c3ccc4c(c3)CN(C3CCC(=O)NC3=O)C4=O)nc12 (stereo not shown) [Example 213, 3-(5-(3-amino-7-((3-hydroxyazetidin-1-yl)methyl)-1H-pyrazolo[4,3-b]pyridin-5-yl)-1-oxoisoindolin-2-yl) piperidine-2,6-dione] | 100 to 1000 nM | 40 to 60% | 1 to 10 nM | 20 to 40% | 100 to 500 nM |
| Nc1n[nH]c2c(CN3CC4COCC4C3)cc(-c3ccc4c(c3)CN(C3CCC(=O)NC3=O)C4=O)nc12 (stereo not shown) [Example 214, 3-(5-(3-amino-7-((tetrahydro-1H-furo[3,4-c]pyrrol-5 (3H)-yl)methyl)-1H-pyrazolo[4,3-b]pyridin-5-yl)-1-oxoisoindolin-2-yl) piperidine-2,6-dione] | 100 to 1000 nM | 60 to 80% | > 10000 nM | < 20% | 100 to 500 nM |
| O=C1CCC(N2Cc3cc(-c4nc(CN5CCCC5)c5ccn(C6CCC6)c5n4)ccc3C2=O)C(=O)N1 (stereo not shown) [Example 217, 3-(5-(7-cyclobutyl-4-(pyrrolidin-1-ylmethyl)-7H-pyrrolo[2,3-d]pyrimidin-2-yl)-1-oxoisoindolin-2-yl) piperidine-2,6-dione] | 1 to 10 nM | 60 to 80% | > 10000 nM | < 20% | 500 to 1000 nM |
| Cn1ccc2c(O[C@@H]3CCNC3)cc(-c3ccc4c(c3)CN([C@H]3CCC(=O)NC3=O)C4=O)nc21 [Example 219, (S)-3-(5-(1-methyl-4-(((R)-pyrrolidin-3-yl)oxy)-1H-pyrrolo[2,3-b]pyridin-6-yl)-1-oxoisoindolin-2-yl) piperidine-2,6-dione] | 10 to 100 nM | 40 to 60% | 100 to 1000 nM | 20 to 40% | 1000 to 5000 nM |
